Source: patent US8334262B2, “Cognitive function” (priority 2008, dated 2012)

How the values were obtained:
PKR [1] = molecular target: T1, PKR (Rattus norvegicus, UniProt Q63184); test: PKR phosphorylation in hippocampal slices from mature rats (Western blot); assay type: cell-based
T1 construct: from tissue; host or cells: rat hippocampal slices (400 µm)
T1 sequence (Q63184 1-513): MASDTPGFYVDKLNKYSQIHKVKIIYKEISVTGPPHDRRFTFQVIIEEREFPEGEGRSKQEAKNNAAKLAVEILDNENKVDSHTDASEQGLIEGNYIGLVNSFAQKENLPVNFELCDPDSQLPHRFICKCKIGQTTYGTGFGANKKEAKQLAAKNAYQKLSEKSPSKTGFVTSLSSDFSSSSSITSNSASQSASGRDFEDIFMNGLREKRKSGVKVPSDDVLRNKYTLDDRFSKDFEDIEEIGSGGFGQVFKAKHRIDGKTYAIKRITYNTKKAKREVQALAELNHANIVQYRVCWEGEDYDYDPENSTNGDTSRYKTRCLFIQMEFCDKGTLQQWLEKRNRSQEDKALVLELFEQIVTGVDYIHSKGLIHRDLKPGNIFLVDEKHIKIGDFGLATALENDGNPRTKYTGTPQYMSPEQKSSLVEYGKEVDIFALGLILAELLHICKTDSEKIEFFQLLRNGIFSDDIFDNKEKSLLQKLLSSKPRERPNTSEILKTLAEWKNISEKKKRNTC
Procedure: (§1) In order to test biochemically the ability of C-16 to reduce eIF-2α phosphorylation in the mature brain, C-16 was applied to hippocampal slices from mature rats substantially as described by Kaphzan et al. (2007) Journal of Neurochemistry 103, 388-399 but with modifications as set out below.
(§2) After decapitation the brain was immediately immersed in cold (4° C.) carboxygenated (95% O2, 5% CO2) Artificial Cerebro-Spinal Fluid (ACSF [in mM]: 124 NaCl, 5 KCl, 1.2 MgSO4, 1.2 NaH2PO4, 26 NaHCO3, 10 D-glucose, 2.4 CaCl), and after about 120s both hippocampi were dissected out in a plate filled with cold (4° C.) ACSF on ice. The hippocampi were put on a cooled stand of a Mcllwain tissue chopper TC752 (Campden Instruments Ltd, UK), cut into 400-μm slices, and then put back into a chamber filled with carboxygenated cold (4° C.) ACSF.
(§3) The slices were transferred to a holding chamber for about 20-30 min, to reach room temperature, and were then transferred to a six-chamber pharmacological instrument, designed to our specifications by Scientific Systems Design Company (Ontario, Canada). All of the slices tested in any one experiment (i.e., in all six chambers) were produced by the same procedure from the same rat. The hippocampal slices were heated to 32° C. and were kept in the chamber for 5 h before any pharmacological intervention. Each chamber contained four slices. The slices were perfused with heated and carboxygenated ACSF (with or without 50 μM C-16 (experimental and control groups respectively)) via a Model MP3 peristaltic pump (Gilson, France), at a rate of ˜2 mL min for 10 mins. The chamber space was carboxygenated and humidified. The chamber was an interface type, and the slices were placed upon a lens paper.
(§4) The slices were analysed occasionally for their viability using extracellular recordings of fEPSP in the CA1 region. […]
(§5) The time window of C-16 effect was analysed by Western blot using specific antibodies for phosphorylated and dephosphorylated forms of PKR and eIF-2α. […]

eIF-2α = eIF-2α phosphorylation in hippocampal slices from mature rats (Western blot); assay type: cell-based, rat
Procedure: as §1, §2, §3, §4, §5

rats [2] = test: Novel taste learning, latent inhibition (LI) paradigm; assay type: in vivo, rat
Procedure: CTA was performed as described earlier (Rosenblum et al., (1993) Behavioral and Neural Biology 59, 49-56). Saccharin (0.1% w/v, sodium salt) or NaCl (0.3%) were used as the unfamiliar taste in training (i.e. the conditioned stimulus (CS)), and injection of LiCl (0.15 m, 2% body weight, i.p.) as the malaise-inducing agent (unconditioned stimulus (UCS)). At the beginning of the behavioral experiment, the rats were trained for 3 days to obtain their daily water ration once a day for 15 min from two pipettes each containing 10 mL of water. On the conditioning day, they were allowed to drink the saccharin solution instead of water from similar pipettes for 15 min, and 50 min later were injected with LiCl. Under these conditions, 2 days after training the conditioned rats preferred water to saccharin in a multiple choice test situation (three pipettes with 5 mL of saccharin each and three with 5 mL of water each), whereas non-conditioned rats preferred saccharin to water. The behavioural data are presented in terms of aversion index, defined as [mL water/(mL water+mL saccharin)] consumed in the test; 0.5 is a chance level, and the higher the aversion index, the more the rats prefer water to the conditioned taste. […]

rats [3] = test: Weak conditioned taste aversion (CTA); assay type: in vivo, rat
Sprague-Dawly male rats = test: Odour maze learning (olfactory discrimination, 4-arm radial maze); assay type: in vivo, rat; conditions: i.p. every day, 2 hr before training; day 3 & 6 p<0.05, n=4
Procedure: Subjects and apparatus: Age-matched young adult Sprague-Dawly male rats were used. Prior to training they were maintained on a 23.5 hr water-deprivation schedule, with food available ad libitum. Olfactory discrimination training protocol was performed daily on each trained and pseudo-trained rat in a 4-arm radial maze, as previously described (Cohen-Matsliah et al. (2007) Journal of Neuroscience 27, 12584-12589), with commercial odours that are regularly used in the cosmetics and food industry.
(§6) C-16 was injected i.p. every day, 2 hr before odour maze training. There was 48 hr break between day 3 and 4 without training or injection.
Training: Olfactory training consisted of 20 trials per day for each rat as previously described (Cohen-Matsliah et al. (2007)). In short, in each trial the rat had to choose between two odours (positive- and negative-cue) presented simultaneously. Rats designated to the trained group were rewarded upon choosing the positive cue. The criterion for learning was at least 80% positive-cue choices in the last 10 trials of a training day, as was previously used (Cohen-Matsliah et al. (2007)). Training for a new pair began only after training for the […] pair was completed for all rats.

rats [4] = test: Contextual fear conditioning (freezing); assay type: in vivo, rat; conditions: i.p. 2 hr before conditioning; tested 24 hours and 10 days later; p<0.05
Text: The entire behavioural procedure took place in the same conditioning chamber containing floor grids and transparent Plexiglas walls. The context of the chamber served as a conditioned stimulus (CS). Rats were placed in the chamber for an approximately two minute adjustment before they were given a foot-shock (0.8 mA for 0.5 sec), which was delivered to the floor bars and served as the unconditioned stimulus (US). The CS-US pairings were given three times. The inter-trial interval was 90-120 seconds throughout. The video images are transferred to a computer (fear-conditioning experiments, control experiment, Dell OptiPlex GXpro) equipped with an analysis program (Image (http://rsb.info.nih.gov/nih-image)) and a macroprogram (P. Schmid, Behavioral Neurobiology Laboratory, Swiss Federal Institute of Technology Zurich). The percentage of changed pixels between two adjacent 1 s images from one of the test boxes was used as a measure of activity. Freezing is commonly identified as cessation of any movement except for respiratory movements. If the percentage of changed pixels between two adjacent 1 s images was <0.05%, this corresponded well to such immobility and the behavior of the rat was scored as “freezing” for the respective second.
C-16 was injected i.p. 2 hr before contextual fear condition. […]

rats [5] = test: Observation of side effects in rats injected with C-16; assay type: in vivo, rat
Procedure: Conditioned taste aversion and novel taste learning were enhanced.
as §6

PKR [6] = molecular target: PKR (Homo sapiens, UniProt P19525); conditions: by inhibiting the ATP-binding site of PKR; cited from earlier work
[7] = 50 μM C-16 perfused on hippocampal slices
[8] = time window, Western blot, 1 hr after treatment

Sequence of PKR (Homo sapiens, UniProt P19525) (P19525 whole entry, the tested form may be a part): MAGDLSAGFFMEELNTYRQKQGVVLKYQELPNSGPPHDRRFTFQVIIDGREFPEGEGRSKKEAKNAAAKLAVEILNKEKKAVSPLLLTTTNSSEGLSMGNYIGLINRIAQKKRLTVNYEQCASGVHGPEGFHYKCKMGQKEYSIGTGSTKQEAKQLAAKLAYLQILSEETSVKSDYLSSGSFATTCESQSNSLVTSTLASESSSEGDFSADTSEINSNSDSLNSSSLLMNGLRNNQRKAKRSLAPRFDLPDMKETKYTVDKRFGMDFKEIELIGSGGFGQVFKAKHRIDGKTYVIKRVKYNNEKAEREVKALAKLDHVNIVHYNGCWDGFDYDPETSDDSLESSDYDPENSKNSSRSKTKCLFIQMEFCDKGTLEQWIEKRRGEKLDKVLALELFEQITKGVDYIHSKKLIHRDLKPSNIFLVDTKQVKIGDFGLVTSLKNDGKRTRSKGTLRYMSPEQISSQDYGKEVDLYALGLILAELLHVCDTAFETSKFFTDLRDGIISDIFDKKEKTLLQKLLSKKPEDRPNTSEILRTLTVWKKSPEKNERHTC

In the case of `O=C1Nc2ccc3ncsc3c2/C1=C/c1c[nH]cn1` [Compound C-16], the “PKR phosphorylation in the mature hippocampus (FIG. 2)” value (PKR [1]; [7]) is reported as “inhibited”, the “time of return of PKR phosphorylation to base line following treatment” value (PKR [1]; time window, Western blot) is reported as 3 to 4 h and the “C-16 effect on PKR phosphorylation after 1 hr” value (PKR [1]; [8]) is reported as “strong effect”. The “eIF-2α phosphorylation in the mature hippocampus (FIG. 3)” value (eIF-2α; [7]) was “inhibited”, the “time of return of eIF-2α phosphorylation to base line following treatment” value (eIF-2α; time window, Western blot) was 3 to 4 h and the “C-16 effect on eIF-2α phosphorylation after 1 hr” value (eIF-2α; [8]) was “strong effect”. The “novel taste memory of 0.1% Saccharin (FIG. 8)” value (rats [2]; 30 min after local microinjection into the gustatory cortex, 50 μM, p<0.05) was “enhances novel taste memory”, the “novel taste memory of 0.1% Saccharin (FIG. 7)” value (rats [2]; 2 hr after i.p. application, p<0.01, n=6) was “enhances novel taste memory” and the “weak CTA (0.05M) to 0.3% NaCl (FIG. 10)” value (rats [3]; 30 min after local injection into the gustatory cortex, 50 μM, p<0.05) was “enhances weak CTA”. For the same compound, the “weak Conditioned Taste Aversion (0.05M) to 0.3% NaCl (FIG. 9)” value (rats [3]; 2 hr after i.p. application, n=8) was “enhances weak Conditioned Taste Aversion”, the “odour maze learning (FIG. 11)” value (Sprague-Dawly male rats) was “enhances odour maze learning” and the “contextual fear condition, average freezing between 4th and 7th minutes (FIG. 12)” value (rats [4]) was “enhances contextual fear condition”. For the same compound, the “side effects on repeated i.p. injection” value (rats [5]; i.p. once a day over a period of more than 7 days, odour maze experiment) was “without any clear disadvantageous side effect”, the “other effects in taste learning experiments” value (rats [5]; local and i.p. injection) was “no other effect that could be measured” and the PKR kinase activity (PKR [6]) was “able to inhibit PKR's kinase activity”.
